Consider 20 compounds from ChEMBL document CHEMBL4828734, “Discovery of High-Affinity Inhibitors of the BPTF Bromodomain” (J Med Chem, 2021).

SMILES strings stand for the structures. The source made the active and inactive calls. No cut-off for these calls is given here.

Data set [1] deals with T1, Nucleosome-remodeling factor subunit BPTF (Homo sapiens, UniProt Q12830).
Description: Binding affinity to BPTF (unknown origin) expressed in Escherichia coli BL21 (DE3) cells by SPR analysis
Data set [2] has as its target T1, Nucleosome-remodeling factor subunit BPTF. Description: Binding affinity to BPTF (unknown origin).
The target is the same in data set [3]. Briefly: Inhibition of N-terminal GST-tagged human BPTF (2914 to 3037 residues) expressed in Escherichia coli BL21-CodonPlus (DE3) cells by HTRF assay.
Data set [4] has the same target. Briefly: Binding affinity to N-terminal GST-tagged human BPTF (2914 to 3037 residues) expressed in Escherichia coli BL21-CodonPlus (DE3) cells by SPR assay.
For data set [5] the target is unchanged. Briefly: Binding affinity to N-terminal GST-tagged human BPTF (2914 to 3037 residues) expressed in Escherichia coli BL21-CodonPlus (DE3) cells assessed as change in melting temperature at 50 uM by thermal shift assay.
Data set [6] has the same target. Briefly: Binding affinity to N-terminal GST-tagged human BPTF (2914 to 3037 residues) expressed in Escherichia coli BL21-CodonPlus (DE3) cells assessed as change in melting temperature at 100 uM by thermal shift assay.
For data set [7] the target is unchanged. Description: Binding affinity to N-terminal GST-tagged human BPTF (2914 to 3037 residues) expressed in Escherichia coli BL21-CodonPlus (DE3) cells assessed as change in melting temperature at 12.5 uM by thermal shift assay.
The target is the same in data set [8]. Description: Binding affinity to N-terminal GST-tagged human BPTF (2914 to 3037 residues) expressed in Escherichia coli BL21-CodonPlus (DE3) cells assessed as change in melting temperature at 25 uM by thermal shift assay.
The target of data set [9] is Bromodomain-containing protein 2 (Homo sapiens) (UniProt P25440). Description: Binding affinity to BRD2-BD2 (unknown origin) assessed as change in melting temperature at 50 uM by thermal shift assay.
In data set [10] the test system is MV4-11. Description: Induction of cell cycle arrest in human MV4-11 cells assessed as accumulation at S phase after 24 hrs by propidium iodide staining based flow cytometry analysis. It is filed as functional. (A flow cytometer gives signals particle by particle.)
Data set [11] has as its target SWI/SNF-related matrix-associated actin-dependent regulator of chromatin subfamily A member 2 (Homo sapiens) (UniProt P51531). Briefly: Inhibition of SMARCA2-BRD (unknown origin) at 1 uM using acetylated H4 as substrate incubated for 1 hr by AlphaScreen assay.
The target in data set [12] is Histone acetyltransferase p300 (Homo sapiens) (UniProt Q09472). Briefly: Binding affinity to p300-BRD (unknown origin) assessed as change in melting temperature at 50 uM by thermal shift assay.
For data set [13], the target named is SWI/SNF-related matrix-associated actin-dependent regulator of chromatin subfamily A member 2 (Homo sapiens) (UniProt P51531). Briefly: Binding affinity to SMARCA2-BRD (unknown origin) assessed as change in melting temperature at 50 uM by thermal shift assay.
For data set [14], the target named is Bromodomain-containing protein 2 (Homo sapiens) (UniProt P25440). Briefly: Binding affinity to BRD2-BD1 (unknown origin) assessed as change in melting temperature at 50 uM by thermal shift assay.
In the next data set the test system is MRC5. Briefly: Cytotoxicity against human MRC5 assessed as reduction in cell viability at 100 uM after 3 days by Celltiter-Glo assay. It counts as cell-based. As to conditions: mrc5, 72 h, time 3 day. (Cellular ATP, detected with luciferase, serves as a proxy for viable cell number.)
Data set [15] has as its system MV4-11. Description: Downregulation of c-Myc protein expression in human MV4-11 cells after 24 hrs by Western blot analysis. As to conditions: dose 0.6-50 µM. It counts as functional, cell-based.
Data set [16] addresses T1, Nucleosome-remodeling factor subunit BPTF. Description: Inhibition of BPTF in human MV4-11 cells assessed as reduction in bcl2 mRNA level incubated for 24 hrs by RT-PCR analysis. It is filed as cell-based. As to conditions: dose 2.5-20 µM.
Data set [17] has as its system MV4-11. Description: Antiproliferative activity against human MC4-11 cells assessed as reduction in cell viability after 5 days by Celltiter-Glo assay. As to conditions: MV4-11, 120 h.
Data set [18] concerns the target T1, Nucleosome-remodeling factor subunit BPTF. Briefly: Inhibition of BPTF in human MV4-11 cells assessed as reduction in c-Myc mRNA level incubated for 24 hrs by RT-PCR analysis. It counts as cell-based. As to conditions: dose 2.5-20 µM.
The target in data set [19] is Bromodomain-containing protein 4 (Homo sapiens) (UniProt O60885). Description: Inhibition of BRD4-BD1 (unknown origin) at 1 uM using acetylated H4 as substrate incubated for 1 hr by AlphaScreen assay. (In general: In Alpha technology, singlet oxygen from a donor bead excites a nearby acceptor bead.)
Data set [20] has as its target T1, Nucleosome-remodeling factor subunit BPTF. Description: Binding affinity to N-terminal GST-tagged human BPTF (2914 to 3037 residues) expressed in Escherichia coli BL21-CodonPlus (DE3) cells at 200 uM by STD NMR spectroscopy.
Data set [21] concerns the target Bromodomain-containing protein 2 (Homo sapiens) (UniProt P25440). Briefly: Inhibition of BRD2-BD2 (unknown origin) at 1 uM using acetylated H4 as substrate incubated for 1 hr by AlphaScreen assay.
Data set [22] shares this target. Briefly: Inhibition of BRD2-BD1 (unknown origin) at 1 uM using acetylated H4 as substrate incubated for 1 hr by AlphaScreen assay.
For data set [23], the target named is Bromodomain-containing protein 4 (Homo sapiens) (UniProt O60885). Description: Binding affinity to BRD4-BD1 (unknown origin) assessed as change in melting temperature at 50 uM by thermal shift assay.
Data set [24] has as its target T1, Nucleosome-remodeling factor subunit BPTF. Briefly: Displacement of Halo-tagged histone H4 from NanoLuc-tagged BPTF (unknown origin) expressed in HEK293 cells by NanoBRET assay. It counts as cell-based.
The target is the same in data set [25]. Briefly: Inhibition of N-terminal GST-tagged human BPTF (2914 to 3037 residues) expressed in Escherichia coli BL21-CodonPlus (DE3) cells at 1 uM incubated for 1 hr by AlphaScreen assay relative to control.
Data set [26] has as its system MV4-11. Briefly: Induction of cell cycle arrest in human MV4-11 cells assessed as accumulation at G1 phase after 24 hrs by propidium iodide staining based flow cytometry analysis. It is filed as functional. As to conditions: dose 5-20 µM.
Data set [27] has as its target CREB-binding protein (Homo sapiens) (UniProt Q92793). Briefly: Binding affinity to CBP-BRD (unknown origin) assessed as change in melting temperature at 50 uM by thermal shift assay.
Data set [28] addresses T1, Nucleosome-remodeling factor subunit BPTF. Briefly: Binding affinity to N-terminal GST-tagged human BPTF (2914 to 3037 residues) expressed in Escherichia coli BL21-CodonPlus (DE3) cells at 200 uM by CPMG NMR spectroscopy.
For data set [29], the target named is Bromodomain-containing protein 4 (Homo sapiens) (UniProt O60885). Briefly: Inhibition of BRD4-BD2 (unknown origin) at 1 uM using acetylated H4 as substrate incubated for 1 hr by AlphaScreen assay.
The target of data set [30] is CREB-binding protein (Homo sapiens) (UniProt Q92793). Description: Inhibition of CBP-BRD (unknown origin) at 1 uM using acetylated H4 as substrate incubated for 1 hr by AlphaScreen assay.
The target of data set [31] is T1, Nucleosome-remodeling factor subunit BPTF. Briefly: Inhibition of BPTF in human MV4-11 cells assessed as reduction in CDK6 mRNA level incubated for 24 hrs by RT-PCR analysis. It counts as cell-based. As to conditions: dose 2.5-20 µM.
For data set [32], the target named is Bromodomain-containing protein 4 (Homo sapiens) (UniProt O60885). Briefly: Binding affinity to BRD4-BD2 (unknown origin) assessed as change in melting temperature at 50 uM by thermal shift assay.
In another data set the test system is HUVEC. Description: Cytotoxicity against HUVEC assessed as reduction in cell viability at 100 uM after 3 days by Celltiter-Glo assay. It counts as cell-based. As to conditions: human, 72 h, time 3 day.
Data set [33] concerns MV4-11. Description: Induction of apoptosis in human MV4-11 cells at 5 to 20 uM after 24 hrs by Annexin V-FITC and propidium iodide staining based flow cytometry analysis. It is filed as functional, cell-based. As to conditions: dose 5-20 µM.
Data set [34] concerns the target Histone acetyltransferase p300 (Homo sapiens) (UniProt Q09472). Description: Inhibition of p300-BRD (unknown origin) at 1 uM using acetylated H4 as substrate incubated for 1 hr by AlphaScreen assay.

Sequence of Bromodomain-containing protein 2 (Homo sapiens) (P25440 whole entry, looked up): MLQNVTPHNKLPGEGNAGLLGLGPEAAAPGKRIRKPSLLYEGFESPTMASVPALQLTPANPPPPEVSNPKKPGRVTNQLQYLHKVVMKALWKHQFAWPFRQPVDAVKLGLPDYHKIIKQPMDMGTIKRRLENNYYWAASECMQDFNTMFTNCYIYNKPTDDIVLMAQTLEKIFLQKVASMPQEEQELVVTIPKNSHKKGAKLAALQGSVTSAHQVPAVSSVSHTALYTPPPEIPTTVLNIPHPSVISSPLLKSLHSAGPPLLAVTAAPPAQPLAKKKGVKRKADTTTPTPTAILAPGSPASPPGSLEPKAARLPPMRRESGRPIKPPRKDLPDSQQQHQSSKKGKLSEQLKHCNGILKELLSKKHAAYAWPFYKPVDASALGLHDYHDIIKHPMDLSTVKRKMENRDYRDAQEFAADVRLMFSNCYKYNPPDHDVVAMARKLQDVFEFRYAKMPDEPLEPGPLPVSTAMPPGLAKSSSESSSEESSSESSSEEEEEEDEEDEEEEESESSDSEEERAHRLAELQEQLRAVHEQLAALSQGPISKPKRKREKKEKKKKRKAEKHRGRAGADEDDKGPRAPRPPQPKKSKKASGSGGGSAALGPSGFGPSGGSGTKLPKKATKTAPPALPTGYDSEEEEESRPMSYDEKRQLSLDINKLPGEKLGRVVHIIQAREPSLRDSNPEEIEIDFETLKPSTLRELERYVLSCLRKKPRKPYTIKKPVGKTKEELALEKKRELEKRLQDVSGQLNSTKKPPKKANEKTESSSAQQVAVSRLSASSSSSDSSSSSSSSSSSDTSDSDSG
Sequence of SWI/SNF-related matrix-associated actin-dependent regulator of chromatin subfamily A member 2 (Homo sapiens) (P51531 whole entry): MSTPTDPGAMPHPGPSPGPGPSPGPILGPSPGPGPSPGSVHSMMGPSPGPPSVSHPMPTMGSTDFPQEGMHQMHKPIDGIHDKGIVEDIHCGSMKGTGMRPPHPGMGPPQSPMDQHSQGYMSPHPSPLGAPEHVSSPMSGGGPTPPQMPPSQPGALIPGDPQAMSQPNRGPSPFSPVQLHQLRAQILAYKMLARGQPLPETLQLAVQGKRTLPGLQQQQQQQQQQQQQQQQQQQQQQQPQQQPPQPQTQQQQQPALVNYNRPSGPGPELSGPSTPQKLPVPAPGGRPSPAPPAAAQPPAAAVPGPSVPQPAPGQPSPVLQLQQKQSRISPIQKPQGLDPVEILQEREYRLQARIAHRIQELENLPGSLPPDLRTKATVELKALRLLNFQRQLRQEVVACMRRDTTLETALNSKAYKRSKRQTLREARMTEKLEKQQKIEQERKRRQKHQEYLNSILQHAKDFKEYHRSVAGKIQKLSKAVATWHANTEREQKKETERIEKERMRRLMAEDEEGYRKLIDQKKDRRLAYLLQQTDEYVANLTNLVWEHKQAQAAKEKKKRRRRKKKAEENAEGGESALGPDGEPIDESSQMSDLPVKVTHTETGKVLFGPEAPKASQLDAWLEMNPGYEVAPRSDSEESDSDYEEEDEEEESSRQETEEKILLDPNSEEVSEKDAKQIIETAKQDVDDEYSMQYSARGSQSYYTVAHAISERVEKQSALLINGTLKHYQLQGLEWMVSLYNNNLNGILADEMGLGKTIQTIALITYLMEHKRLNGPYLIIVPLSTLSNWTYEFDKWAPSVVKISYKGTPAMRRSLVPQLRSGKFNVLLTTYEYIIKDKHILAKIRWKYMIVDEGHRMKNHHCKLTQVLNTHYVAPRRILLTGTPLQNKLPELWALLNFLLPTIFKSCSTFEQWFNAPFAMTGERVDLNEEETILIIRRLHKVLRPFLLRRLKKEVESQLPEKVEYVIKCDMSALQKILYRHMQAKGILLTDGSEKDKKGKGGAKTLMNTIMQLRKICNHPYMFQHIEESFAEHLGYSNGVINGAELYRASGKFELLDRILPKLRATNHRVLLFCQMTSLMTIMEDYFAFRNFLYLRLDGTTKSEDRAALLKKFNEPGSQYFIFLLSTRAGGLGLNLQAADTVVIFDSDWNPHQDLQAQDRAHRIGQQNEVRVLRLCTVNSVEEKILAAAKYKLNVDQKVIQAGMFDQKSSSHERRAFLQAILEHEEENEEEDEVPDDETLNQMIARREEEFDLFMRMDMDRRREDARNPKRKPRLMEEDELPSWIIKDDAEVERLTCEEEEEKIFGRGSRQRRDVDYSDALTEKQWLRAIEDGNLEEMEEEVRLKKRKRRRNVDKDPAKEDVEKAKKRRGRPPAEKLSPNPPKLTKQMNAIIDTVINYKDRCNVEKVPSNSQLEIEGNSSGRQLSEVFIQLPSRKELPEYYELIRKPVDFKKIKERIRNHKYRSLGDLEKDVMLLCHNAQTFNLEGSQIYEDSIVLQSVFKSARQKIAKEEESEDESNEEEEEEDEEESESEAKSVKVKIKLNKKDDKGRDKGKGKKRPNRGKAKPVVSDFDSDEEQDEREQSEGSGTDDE
Sequence of CREB-binding protein (Homo sapiens) (Q92793 2-2442 limits assumed): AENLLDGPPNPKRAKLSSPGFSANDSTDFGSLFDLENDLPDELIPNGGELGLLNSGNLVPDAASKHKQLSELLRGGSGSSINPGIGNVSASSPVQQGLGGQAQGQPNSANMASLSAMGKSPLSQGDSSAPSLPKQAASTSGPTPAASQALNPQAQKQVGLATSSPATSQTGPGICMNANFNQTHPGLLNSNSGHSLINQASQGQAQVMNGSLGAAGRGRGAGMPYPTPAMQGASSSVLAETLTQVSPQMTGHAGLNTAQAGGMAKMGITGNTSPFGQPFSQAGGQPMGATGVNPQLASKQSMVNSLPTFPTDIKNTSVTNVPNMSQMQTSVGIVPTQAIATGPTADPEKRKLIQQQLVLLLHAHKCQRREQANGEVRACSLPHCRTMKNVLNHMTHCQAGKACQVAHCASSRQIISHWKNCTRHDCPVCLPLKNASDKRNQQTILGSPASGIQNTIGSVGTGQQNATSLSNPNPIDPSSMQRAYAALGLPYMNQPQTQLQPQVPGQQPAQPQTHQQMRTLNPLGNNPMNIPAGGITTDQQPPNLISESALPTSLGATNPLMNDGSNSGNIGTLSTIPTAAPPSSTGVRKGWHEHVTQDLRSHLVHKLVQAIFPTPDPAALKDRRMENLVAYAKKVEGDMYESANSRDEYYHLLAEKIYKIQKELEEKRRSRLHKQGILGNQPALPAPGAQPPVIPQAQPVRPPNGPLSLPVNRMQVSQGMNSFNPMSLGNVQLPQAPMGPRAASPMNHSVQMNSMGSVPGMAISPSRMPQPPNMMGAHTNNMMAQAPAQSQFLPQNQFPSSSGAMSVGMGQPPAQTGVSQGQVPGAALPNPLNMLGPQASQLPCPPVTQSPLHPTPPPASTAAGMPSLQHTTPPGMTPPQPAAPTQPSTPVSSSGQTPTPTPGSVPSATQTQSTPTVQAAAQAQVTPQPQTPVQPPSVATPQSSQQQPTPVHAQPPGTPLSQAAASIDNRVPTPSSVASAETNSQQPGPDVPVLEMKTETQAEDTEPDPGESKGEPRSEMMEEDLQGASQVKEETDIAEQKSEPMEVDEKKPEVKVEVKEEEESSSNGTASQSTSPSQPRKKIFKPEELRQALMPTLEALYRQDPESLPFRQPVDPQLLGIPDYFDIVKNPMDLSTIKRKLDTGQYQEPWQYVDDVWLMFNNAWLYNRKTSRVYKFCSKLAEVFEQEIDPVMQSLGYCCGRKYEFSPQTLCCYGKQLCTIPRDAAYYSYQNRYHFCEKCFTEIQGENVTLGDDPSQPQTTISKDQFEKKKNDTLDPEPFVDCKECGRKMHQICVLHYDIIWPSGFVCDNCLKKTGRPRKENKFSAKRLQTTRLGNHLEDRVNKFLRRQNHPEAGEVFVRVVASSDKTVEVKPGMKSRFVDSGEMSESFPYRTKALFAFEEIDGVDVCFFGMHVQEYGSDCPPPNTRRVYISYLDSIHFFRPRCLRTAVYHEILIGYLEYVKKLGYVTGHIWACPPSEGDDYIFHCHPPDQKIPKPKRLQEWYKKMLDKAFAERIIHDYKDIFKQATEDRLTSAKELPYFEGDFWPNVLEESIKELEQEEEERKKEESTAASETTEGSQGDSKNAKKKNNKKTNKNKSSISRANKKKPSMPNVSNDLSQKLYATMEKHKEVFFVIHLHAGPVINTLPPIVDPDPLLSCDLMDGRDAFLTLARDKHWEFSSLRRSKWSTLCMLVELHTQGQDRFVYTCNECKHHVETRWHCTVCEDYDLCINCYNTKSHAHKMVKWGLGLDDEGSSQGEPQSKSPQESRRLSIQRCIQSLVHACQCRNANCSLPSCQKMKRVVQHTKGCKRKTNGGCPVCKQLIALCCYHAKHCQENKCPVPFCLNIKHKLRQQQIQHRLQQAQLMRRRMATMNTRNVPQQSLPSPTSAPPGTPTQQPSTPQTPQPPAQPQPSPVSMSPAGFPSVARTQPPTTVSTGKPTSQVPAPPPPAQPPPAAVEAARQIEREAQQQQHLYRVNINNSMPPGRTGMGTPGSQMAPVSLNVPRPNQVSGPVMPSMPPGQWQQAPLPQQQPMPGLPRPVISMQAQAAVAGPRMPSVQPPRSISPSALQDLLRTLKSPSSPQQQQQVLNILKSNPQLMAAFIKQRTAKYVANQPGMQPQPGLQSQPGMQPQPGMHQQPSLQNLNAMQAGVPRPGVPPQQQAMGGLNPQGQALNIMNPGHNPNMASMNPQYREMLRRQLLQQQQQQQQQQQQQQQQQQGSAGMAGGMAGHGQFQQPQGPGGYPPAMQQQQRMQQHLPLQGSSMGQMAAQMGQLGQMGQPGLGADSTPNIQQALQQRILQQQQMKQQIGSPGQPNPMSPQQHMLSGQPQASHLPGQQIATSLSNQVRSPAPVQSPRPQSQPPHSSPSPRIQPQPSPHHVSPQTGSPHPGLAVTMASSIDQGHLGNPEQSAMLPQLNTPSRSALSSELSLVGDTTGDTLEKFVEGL

What is called Kd is the constant that tells how readily two partners part at equilibrium. High values mean a looser complex, low ones a tighter complex. As for `CN(C)CCCOc1ccc(-c2cc(NCCCn3cccn3)nc(S(C)(=O)=O)n2)cc1`, the Kd came to 200 nM in data set [1] and 120 nM in [2].

Broadly, the IC50 is the concentration needed to halve the response being measured. Regarding `CN(C)CCCn1ccc2cc(-c3cc(N(C)C)nc(S(C)(=O)=O)n3)ccc21`, in data set [3], the IC50 came to 14700 nM.

For the compound `CNc1cc(-c2cccc3ncccc23)nc(S(C)(=O)=O)n1`, in data set [3], the IC50 was determined as 1700 nM.

In data set [3], `CCCNc1cc(-c2cc(OC)c3c(ccn3CCCN(C)C)c2)nc(S(C)(=O)=O)n1` had an IC50 of 63.8 nM.

For the compound `CCCNc1cc(-c2ccc3c(c2)c(C)cn3CCCN(C)C)nc(S(C)(=O)=O)n1`, half-maximal inhibition in data set [3] (IC50) was put at 58.6 nM.

Turning to `CCCNc1cc(-c2ccc3c(ccn3CCCN(C)C)c2)nc([S+](C)[O-])n1` (stereo not drawn), in [3], the IC50 was determined as 145 nM.

What is called ΔTm is the change in melting temperature against a reference sample. With `CCCNc1cc(-c2ccc3c(ccn3CCCN(C)C)c2)nc(S(C)(=O)=O)n1`, the affinity in [4], expressed as Kd, was 49600 nM. In addition, the ΔTm in [5] came to 7.97 °C; in [6], 8.9 °C; in [7] it was 3.87 °C; in [8], 6.12 °C. In data set [3], this compound registered an IC50 of 16 nM.

In turn, `CNc1cc(-c2ccc3ccn(CCCN(C)C)c3c2)nc(S(C)(=O)=O)n1` registered an IC50 in data set [3] of 2100 nM.

As to `CCCCNc1cc(-c2ccc3c(ccn3CCCN(C)C)c2)nc(S(C)(=O)=O)n1`, inhibition in data set [3] was half-maximal at 114 nM (IC50).

In data set [3], `CCC(C)Nc1cc(-c2ccc3c(ccn3CCCN(C)C)c2)nc(S(C)(=O)=O)n1` (stereo not drawn) came in with an IC50 of 288 nM.

In data set [3], `CCNc1cc(-c2ccc3c(ccn3CCCN(C)C)c2)nc(S(C)(=O)=O)n1` had an IC50 of 28.8 nM.

On to `Cc1cn(CCCN(C)C)c2ccc(-c3nc(S(C)(=O)=O)nc4[nH]ccc34)cc12`, for which, in data set [3], the IC50 worked out at 157 nM.

`CNc1cc(-c2ccccc2)nc(S(C)(=O)=O)n1` yielded an IC50 in data set [3] of 7800 nM.

In turn, `CNc1cc(-c2ccc3c(ccn3CCN(C)C)c2)nc(S(C)(=O)=O)n1` gave an IC50 in [3] of 36.9 nM.

`CNc1cc(-c2ccc3[nH]ccc3c2)nc(S(C)(=O)=O)n1` showed an equilibrium dissociation constant (Kd) in data set [4] of 2810 nM. For the same compound, the ΔTm is 1.67 °C in [5], 2.4 °C in data set [6], 1.22 °C in [7] and 1.29 °C in data set [8]. Moreover, in data set [3], inhibition was half-maximal at 698 nM (IC50).

Consider `CCOc1c(I)cc(C(N)=O)cc1OC`, for which the Kd in data set [2] was determined as 17900 nM.

The inhibition is the change of the read-out against control, counted positive when it falls. By EC50 is commonly meant the concentration that produces a half-maximal response. A higher EC50 goes with a need for much substance. For the compound `CN(C)CCCn1ccc2cc(-c3nc(S(C)(=O)=O)nc4[nH]ccc34)ccc21`, the outcome in [9], in [12], in [13], in [14], in [23] and in data set [27] was inactive. In addition, the outcome in data set [32] was inactive. The Activity entry in the data set on MV4-11 [10] was “Dose-Dependent Effect”; in the data set with MRC5 it was “Non-Toxic”; in the data set with MV4-11 [15], “Dose-Dependent Effect”; in the data set on MV4-11 [26] it was “Dose-Dependent Effect”; in the data set with HUVEC it was “Non-Toxic”. Besides, the affinity in [4], expressed as Kd, was 20.7 nM. The inhibition result in [11], in [19], in data set [21], in data set [22], in [29] and in [30] was “inactive” each time. Also, the inhibition result in [34] is “inactive”. The inhibition result in data set [16] is “Dose-Dependent Effect”; in data set [18] it was “Dose-Dependent Effect”; in data set [25] it was 100%; in data set [31] it was “Dose-Dependent Effect”. The figures for the concentration for half-maximal inhibition (IC50) (in the data set on MV4-11 [17]; in data set [3]) were 890 nM and 26.9 nM, respectively. Besides, the ΔTm in data set [5] was 6.5 °C; in data set [6] it was 7.66 °C; in data set [8] it was 5.02 °C. Further, the outcome (in data set [20]; in data set [28]; with MV4-11 [33]) was Active. The compound further gave an EC50 in data set [24] of 120 nM.

In the case of `CNc1cc(-c2ccc3c(ccn3CCCN(C)C)c2)nc([S+](C)[O-])n1` (stereo not drawn), the half-inhibitory concentration (IC50) in data set [3] is 59.3 nM.

Consider `CNc1cc(-c2ccc3c(ccn3CCCN(C)C)c2)nc(S(C)(=O)=O)n1`, for which the half-maximal inhibitory concentration (IC50) in [3] is 32.7 nM.

For `Cc1c(Nc2ccc(S(=O)(=O)N3CCN(C)CC3)cc2F)nc2ccc(-c3cnn(C4CC4)c3)cn2c1=O`, the Kd in [2] is 71 nM.
